Results reported in PubChem BioAssay (NCI).
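Exposure lasted 48 hours, with cells grown in 96-well plates and compounds tested at five concentrations. GI50 marks 50% less growth. TGI is the concentration that stops growth completely.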

Tests used:
Experiment in all cases: DTP human tumour cell line panel, 48 h
OVCAR-8 ovarian = system: OVCAR-8 ovarian
HL-60(TB) leukemia = system: HL-60(TB) leukemia
ACHN renal = system: ACHN renal
T-47D breast = system: T-47D breast
EKVX NSCLC = system: EKVX NSCLC
HCT-15 colon = system: HCT-15 colon
SF-539 CNS = system: SF-539 CNS
UACC-62 melanoma = system: UACC-62 melanoma
HCC-2998 colon = system: HCC-2998 colon
SR leukemia = system: SR leukemia
NCI-H23 lung = system: NCI-H23 lung
IGROV1 ovarian = system: IGROV1 ovarian
MDA-MB-435 = system: MDA-MB-435
TK-10 renal = system: TK-10 renal
SK-MEL-28 melanoma = system: SK-MEL-28 melanoma
HCT-116 colon = system: HCT-116 colon
SK-MEL-5 melanoma = system: SK-MEL-5 melanoma
M14 melanoma = system: M14 melanoma
RXF 393 renal = system: RXF 393 renal
CAKI-1 renal = system: CAKI-1 renal
SNB-19 CNS = system: SNB-19 CNS
U251 CNS = system: U251 CNS
SK-OV-3 ovarian = system: SK-OV-3 ovarian
SF-295 CNS = system: SF-295 CNS
HS 578T breast = system: HS 578T breast
MDA-MB-231 breast = system: MDA-MB-231 breast
MDA-MB-468 breast = system: MDA-MB-468 breast
K-562 leukemia = system: K-562 leukemia
OVCAR-3 ovarian = system: OVCAR-3 ovarian

O=C(COc1ccc(NC(=O)Nc2ccccc2)cc1)N=Nc1c(O)[nH]c2ccc([N+](=O)[O-])cc12
GI50 (OVCAR-8 ovarian): 1890 nM
TGI (OVCAR-8 ovarian): 3.75 µM
GI50 (HL-60(TB) leukemia): 8.08 µM
TGI (HL-60(TB) leukemia): > 100 µM
GI50 (ACHN renal): 29.3 µM
TGI (ACHN renal): > 100 µM
GI50 (T-47D breast): 1710 nM
TGI (T-47D breast): 3.6 µM
GI50 (EKVX NSCLC): 5.02 µM
TGI (EKVX NSCLC): 45.7 µM
GI50 (HCT-15 colon): 99.8 µM
TGI (HCT-15 colon): > 100 µM
GI50 (SF-539 CNS): 1670 nM
TGI (SF-539 CNS): 3.14 µM
GI50 (UACC-62 melanoma): 1830 nM
TGI (UACC-62 melanoma): 3.92 µM
GI50 (HCC-2998 colon): 2240 nM
TGI (HCC-2998 colon): 5.15 µM
GI50 (SR leukemia): 2650 nM
TGI (SR leukemia): 6.32 µM
GI50 (NCI-H23 lung): 2090 nM
TGI (NCI-H23 lung): 4.27 µM
GI50 (IGROV1 ovarian): 3.43 µM
TGI (IGROV1 ovarian): 15.5 µM
GI50 (MDA-MB-435): 1710 nM
TGI (MDA-MB-435): 3.26 µM
GI50 (TK-10 renal): 17.3 µM
TGI (TK-10 renal): 38.4 µM
GI50 (SK-MEL-28 melanoma): 1790 nM
TGI (SK-MEL-28 melanoma): 3.65 µM
GI50 (HCT-116 colon): 1720 nM
TGI (HCT-116 colon): 3.13 µM
GI50 (SK-MEL-5 melanoma): 2150 nM
TGI (SK-MEL-5 melanoma): 5.09 µM
GI50 (M14 melanoma): 2860 nM
TGI (M14 melanoma): 11.3 µM
GI50 (RXF 393 renal): 2310 nM
TGI (RXF 393 renal): 6.01 µM
GI50 (CAKI-1 renal): 47.7 µM
TGI (CAKI-1 renal): > 100 µM
GI50 (SNB-19 CNS): 1980 nM
TGI (SNB-19 CNS): 4.55 µM
GI50 (U251 CNS): 1710 nM
TGI (U251 CNS): 3.12 µM
GI50 (SK-OV-3 ovarian): 5.45 µM
TGI (SK-OV-3 ovarian): 21 µM
GI50 (SF-295 CNS): 6.27 µM
TGI (SF-295 CNS): 32.8 µM
GI50 (HS 578T breast): 2090 nM
TGI (HS 578T breast): 5.8 µM
GI50 (MDA-MB-231 breast): 1820 nM
TGI (MDA-MB-231 breast): 3.41 µM
GI50 (MDA-MB-468 breast): 1850 nM
TGI (MDA-MB-468 breast): 3.31 µM
GI50 (K-562 leukemia): 3.02 µM
TGI (K-562 leukemia): 7.65 µM
GI50 (OVCAR-3 ovarian): 1660 nM
TGI (OVCAR-3 ovarian): 3.18 µM
